Read-outs that look alike come from different tables or passages of the source.
Assays:
[1] = target: T1, CYP2D6 (Homo sapiens, UniProt P10635); test: Cytochrome P450 inhibition assay, CYP2D6; format: in vitro ADME; details: pooled human liver microsomes, probe Dextromethorphan
T1 construct: from tissue; host or cells: pooled human liver microsomes
Description: (§1) The susceptibility of Compounds (2) and (3) to potential drug-drug interactions was tested by assaying their abilities to inhibit various cytochrome P450 isoforms. Prior art Compound B (see Example 3 above) was also tested as a comparative example. Test compounds, prepared and serially diluted in DMSO, were incubated at six concentrations (1% DMSO final) with pooled human liver microsomes in the presence of probe substrate for each isoform, and their effects on the metabolism of probe substrates determined. Incubations (in 96-well plates) were carried out at 37° C. in 0.1 M Tris buffer, pH 7.4, with reactions initiated by the addition of cofactor, NADPH (1 mM final concentration). At the specified times, reactions were terminated with acetonitrile containing an analytical internal standard, samples were centrifuged and the supernatant fractions were analysed for probe substrate metabolites by mass spectrometry (LC-MS/MS). The instrument responses were normalised to internal standard and compared to the appropriate solvent controls to determine the amount of metabolite formed from the probe substrates relative to these “uninhibited” controls. […] [table]

[2] = target: T2, CYP2C19 (Homo sapiens, UniProt P33261); test: Cytochrome P450 inhibition assay, CYP2C19; format: in vitro ADME; details: pooled human liver microsomes, probe S-(+)-Mephenytoin
T2 construct: from tissue; host or cells: pooled human liver microsomes
T2 sequence (P33261 whole entry): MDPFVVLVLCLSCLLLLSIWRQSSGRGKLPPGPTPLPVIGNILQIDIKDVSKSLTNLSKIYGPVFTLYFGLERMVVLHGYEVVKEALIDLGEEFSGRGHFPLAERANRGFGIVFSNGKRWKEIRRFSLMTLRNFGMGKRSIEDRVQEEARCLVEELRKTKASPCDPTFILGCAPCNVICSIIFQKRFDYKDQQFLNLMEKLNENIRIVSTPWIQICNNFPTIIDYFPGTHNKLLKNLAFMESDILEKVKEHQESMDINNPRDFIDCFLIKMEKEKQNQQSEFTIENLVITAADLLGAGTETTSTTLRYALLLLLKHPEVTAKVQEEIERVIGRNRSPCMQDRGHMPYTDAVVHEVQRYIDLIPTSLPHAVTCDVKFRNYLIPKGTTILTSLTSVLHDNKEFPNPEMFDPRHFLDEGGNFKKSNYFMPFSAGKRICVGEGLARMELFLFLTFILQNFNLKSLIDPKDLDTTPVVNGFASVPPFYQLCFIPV
Description: as §1

[3] = target: T3, CYP2B6 (Homo sapiens, UniProt P20813); test: Cytochrome P450 inhibition assay, CYP2B6; format: in vitro ADME; details: pooled human liver microsomes, probe Bupropion
T3 construct: from tissue; host or cells: pooled human liver microsomes
T3 sequence (P20813 1-491): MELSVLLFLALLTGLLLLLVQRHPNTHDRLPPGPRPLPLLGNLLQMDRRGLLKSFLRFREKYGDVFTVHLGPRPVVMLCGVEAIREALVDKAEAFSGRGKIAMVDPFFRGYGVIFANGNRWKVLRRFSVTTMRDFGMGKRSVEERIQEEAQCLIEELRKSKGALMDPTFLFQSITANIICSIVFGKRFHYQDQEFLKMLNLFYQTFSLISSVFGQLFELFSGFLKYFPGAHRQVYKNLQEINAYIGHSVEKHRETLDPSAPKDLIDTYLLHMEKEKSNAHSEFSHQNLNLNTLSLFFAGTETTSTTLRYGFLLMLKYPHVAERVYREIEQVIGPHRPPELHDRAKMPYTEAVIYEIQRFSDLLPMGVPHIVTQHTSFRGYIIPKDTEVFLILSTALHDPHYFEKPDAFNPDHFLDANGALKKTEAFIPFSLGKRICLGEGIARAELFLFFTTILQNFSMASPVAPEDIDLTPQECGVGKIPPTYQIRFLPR
Description: as §1

[4] = target: JAK3 (Homo sapiens, UniProt P52333); test: JAK3 kinase inhibition assay (33P-ATP filter binding, Reaction Biology)
JAK3, sequence (P52333 781-1124): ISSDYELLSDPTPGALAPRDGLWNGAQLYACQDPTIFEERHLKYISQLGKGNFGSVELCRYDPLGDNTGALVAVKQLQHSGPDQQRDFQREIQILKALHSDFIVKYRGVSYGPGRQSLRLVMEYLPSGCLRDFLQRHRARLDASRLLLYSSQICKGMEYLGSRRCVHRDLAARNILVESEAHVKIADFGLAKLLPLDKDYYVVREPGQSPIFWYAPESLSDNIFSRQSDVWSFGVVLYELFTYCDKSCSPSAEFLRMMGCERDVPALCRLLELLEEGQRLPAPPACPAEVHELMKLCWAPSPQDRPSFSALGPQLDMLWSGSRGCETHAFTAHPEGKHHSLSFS

[5] = Hepatocyte stability assay, mouse; format: in vitro ADME; details: male, CD-1, pooled hepatocytes, 37° C.
Description: Test and control compounds were incubated with hepatocytes at 37° C. Aliquots were removed at 6 timepoints over a one hour period. Samples were centrifuged and the supernatant fractions analysed for parent compound by mass spectrometry (LC-MS/MS).
The amount of compound remaining (expressed as %) was determined from the MS response in each sample relative to that in the T=0 samples, and used to determine the half-life and intrinsic clearance of the compound.

[6] = target: T4, CYP2C9 (Homo sapiens, UniProt P11712); test: Cytochrome P450 inhibition assay, CYP2C9; format: in vitro ADME; details: pooled human liver microsomes, probe Diclofenac
T4 construct: from tissue; host or cells: pooled human liver microsomes
T4 sequence (P11712 whole entry): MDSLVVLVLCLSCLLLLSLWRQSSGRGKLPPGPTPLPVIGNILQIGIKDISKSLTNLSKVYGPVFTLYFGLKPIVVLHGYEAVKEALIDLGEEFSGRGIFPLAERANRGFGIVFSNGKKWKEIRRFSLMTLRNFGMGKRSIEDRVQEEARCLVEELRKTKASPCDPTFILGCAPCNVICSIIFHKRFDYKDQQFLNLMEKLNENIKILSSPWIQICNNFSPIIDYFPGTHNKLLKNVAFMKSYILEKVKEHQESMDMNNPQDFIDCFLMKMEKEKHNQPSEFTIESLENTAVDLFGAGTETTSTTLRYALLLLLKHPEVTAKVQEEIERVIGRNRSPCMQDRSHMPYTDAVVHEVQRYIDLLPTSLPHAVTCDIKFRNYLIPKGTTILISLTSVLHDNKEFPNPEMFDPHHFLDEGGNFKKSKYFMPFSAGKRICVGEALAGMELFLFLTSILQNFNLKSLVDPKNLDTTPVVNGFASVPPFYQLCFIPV
Description: as §1

[7] = target: T5, CYP1A2 (Homo sapiens, UniProt P05177); test: Cytochrome P450 inhibition assay, CYP1A2; format: in vitro ADME; details: pooled human liver microsomes, probe Phenacetin
T5 sequence (P05177 1-516): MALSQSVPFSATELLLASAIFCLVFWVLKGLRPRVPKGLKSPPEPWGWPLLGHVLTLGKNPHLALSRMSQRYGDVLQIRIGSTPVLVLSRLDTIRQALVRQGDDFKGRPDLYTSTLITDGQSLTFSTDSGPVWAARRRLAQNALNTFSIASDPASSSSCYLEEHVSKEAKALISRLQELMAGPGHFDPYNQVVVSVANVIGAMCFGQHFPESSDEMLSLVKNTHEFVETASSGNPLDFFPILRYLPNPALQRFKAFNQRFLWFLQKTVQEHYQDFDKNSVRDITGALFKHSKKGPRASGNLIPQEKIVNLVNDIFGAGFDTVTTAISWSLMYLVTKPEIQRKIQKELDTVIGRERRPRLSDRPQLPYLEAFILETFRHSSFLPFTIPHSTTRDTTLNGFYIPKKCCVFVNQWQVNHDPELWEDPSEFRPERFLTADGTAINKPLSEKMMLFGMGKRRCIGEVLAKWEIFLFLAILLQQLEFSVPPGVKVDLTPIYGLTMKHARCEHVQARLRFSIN
Description: as §1

[8] = target: T6, CYP3A4 (Homo sapiens, UniProt P08684); test: Cytochrome P450 inhibition assay, CYP3A4; format: in vitro ADME; details: pooled human liver microsomes
T6 construct: from tissue; host or cells: pooled human liver microsomes
T6 sequence (P08684 whole entry): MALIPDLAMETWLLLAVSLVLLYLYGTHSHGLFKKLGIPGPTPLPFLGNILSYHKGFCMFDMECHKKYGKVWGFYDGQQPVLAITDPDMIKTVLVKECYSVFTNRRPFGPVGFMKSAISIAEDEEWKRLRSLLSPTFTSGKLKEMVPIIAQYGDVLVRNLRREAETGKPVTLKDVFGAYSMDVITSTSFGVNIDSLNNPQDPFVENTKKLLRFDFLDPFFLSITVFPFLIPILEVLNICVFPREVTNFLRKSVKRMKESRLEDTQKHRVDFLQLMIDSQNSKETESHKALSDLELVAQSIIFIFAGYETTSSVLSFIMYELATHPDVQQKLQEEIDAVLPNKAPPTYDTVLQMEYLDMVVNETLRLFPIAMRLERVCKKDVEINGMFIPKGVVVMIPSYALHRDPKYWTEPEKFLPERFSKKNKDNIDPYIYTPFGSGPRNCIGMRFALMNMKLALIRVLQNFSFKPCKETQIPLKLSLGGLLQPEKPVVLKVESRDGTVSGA
Description: as §1

[9] = target: JAK1 (Homo sapiens, UniProt P23458); test: JAK1 kinase inhibition assay (33P-ATP filter binding, Reaction Biology)
JAK1, sequence (P23458 866-1154): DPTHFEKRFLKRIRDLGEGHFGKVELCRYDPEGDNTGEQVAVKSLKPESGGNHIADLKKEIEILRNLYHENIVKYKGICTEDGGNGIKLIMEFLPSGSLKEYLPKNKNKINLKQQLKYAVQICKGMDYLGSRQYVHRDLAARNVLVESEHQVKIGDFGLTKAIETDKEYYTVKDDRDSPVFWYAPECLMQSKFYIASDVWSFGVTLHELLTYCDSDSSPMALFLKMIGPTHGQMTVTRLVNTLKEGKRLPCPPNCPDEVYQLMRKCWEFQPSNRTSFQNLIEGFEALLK

[10] = probe Midazolam, read-out: CYP3A4 (MID) IC50
[11] = probe Testosterone, read-out: CYP3A4 (Test) IC50

T1 sequence (P10635 whole entry): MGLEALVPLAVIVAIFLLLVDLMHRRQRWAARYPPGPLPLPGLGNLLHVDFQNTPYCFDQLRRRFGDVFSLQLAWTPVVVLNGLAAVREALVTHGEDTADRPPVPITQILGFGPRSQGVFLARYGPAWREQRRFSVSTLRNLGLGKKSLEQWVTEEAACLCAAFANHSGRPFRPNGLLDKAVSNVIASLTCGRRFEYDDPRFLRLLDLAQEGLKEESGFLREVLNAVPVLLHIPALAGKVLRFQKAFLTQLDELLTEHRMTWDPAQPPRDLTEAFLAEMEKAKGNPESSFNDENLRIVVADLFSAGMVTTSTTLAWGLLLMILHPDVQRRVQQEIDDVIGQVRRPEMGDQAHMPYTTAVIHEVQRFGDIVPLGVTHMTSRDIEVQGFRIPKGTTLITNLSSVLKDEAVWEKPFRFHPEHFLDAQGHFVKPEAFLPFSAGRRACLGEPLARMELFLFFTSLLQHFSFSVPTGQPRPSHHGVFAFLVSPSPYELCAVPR

Compound	IC50 [1]	IC50 [2]	IC50 [3]	IC50 [4]	hepatocyte CLint [5]	IC50 [6]	IC50 [7]	IC50 [8, 10]	IC50 [8, 11]	IC50 [9]	selectivity for TYK2 compared to JAK3 ([4]; biochemical assays)	Selectivity v TYK2: JAK3 ([4]; ratio of JAK3 IC50 to TYK2 IC50)	half-life ([5]; read-out: Mouse T1/2)	Selectivity v TYK2: JAK1 ([9]; ratio of JAK1 IC50 to TYK2 IC50)
NC(=O)c1nc(-c2c(Cl)cccc2Cl)oc1Nc1ccc(C(=O)N2CCOCC2)cc1 [Comparative Compound B, 2-(2,6-dichloro-phenyl)-5-[4-(morpholine-4-carbonyl)-phenylamino]-oxazole-4-carboxylic acid amide, reference compound]	> 30 µM	> 30 µM	> 30 µM	0.271 µM	40.5 µL/min/1e6 cells	4.4 µM	> 30 µM	> 30 µM	> 30 µM	0.026 µM	–	–	–	–
NC(=O)c1nc(-c2c(Cl)cccc2Cl)oc1Nc1ccc(C(=O)N2CCS(=O)(=O)CC2)cc1 [Compound (2)]	> 30 µM	> 30 µM	> 30 µM	0.212 µM	16.8 µL/min/1e6 cells	26 µM	> 30 µM	> 30 µM	> 30 µM	0.02 µM	–	–	–	–
NC(=O)c1nc(-c2c(Cl)cccc2Cl)oc1Nc1ccc(C(=O)N2CCS(=O)(=O)CC2)c(F)c1 [Compound (3)]	> 30 µM	29 µM	> 30 µM	0.772 µM	28 µL/min/1e6 cells	> 30 µM	> 30 µM	> 30 µM	> 30 µM	0.051 µM	~164 fold	164.3	39.2 min	10.9

— patent US12187716B2, “TYK2 kinase inhibitors” (SAREUM LIMITED, priority 2018, dated 2025)
